Measurements as given in paper PMC6150379, “Novel Triazole Hybrids of Betulin: Synthesis and Biological Activity Profile” (Molecules : A Journal of Synthetic Chemistry and Natural …, 2017).
In brackets after ≈: the same amount, converted by molar mass.

Experiments:
[1] = test system: T47D (human ductal carcinoma); experiment: Cytotoxic activity, WST-1 assay; format: cell-based; conditions: for IC50 / IC50 ± SD: 72 h, Neg = negative in the concentration used; for potency relative to cisplatin: ratio of IC50 values
[2] = test system: MCF-7 (human adenocarcinoma); experiment: Cytotoxic activity, WST-1 assay; format: cell-based; conditions: MCF-7, 72 h, Neg = negative in the concentration used
[3] = test system: Colo-829 (human malignant melanoma); experiment: Cytotoxic activity, WST-1 assay; format: cell-based; conditions: Colo-829, 72 h, Neg = negative in the concentration used
[4] = test system: C-32 (human amelanotic melanoma); experiment: Cytotoxic activity, WST-1 assay; format: cell-based; conditions: C-32, 72 h, Neg = negative in the concentration used
SNB-19 (glioblastoma) = experiment: Cytotoxic activity, WST-1 assay; format: cell-based, human; conditions: SNB-19, 72 h, Neg = negative in the concentration used
[5] = test system: SKOV-3 human ovarian cancer cell line; experiment: Inhibition of tumor cell proliferation (MTT); conditions: SK-OV-3, 96 h, read-out: Max. Inhibition (% of Control)
Protocol: Antiproliferative activities of the compounds were measured by the MTT assay using A549 cells and a human ovarian cancer cell line SKOV-3 (adenocarcinoma ATCC® HTB77™). A total of 2 × 10^3 cells in DMEM medium supplemented with 5% FBS were placed in each well of a 96-well flat-bottom plate. After 24 h of incubation at 37 °C in 5% CO2, the growth medium was replaced by media containing different concentrations of the derivatives. Control cultures received cisplatin 0.1–10 μg/mL, and blank wells contained 100 μL of growth medium with no cells. After 96 h of incubation, cell proliferation was determined by the colorimetric MTT assay (570 nm) reading for each concentration compared with the control. At least three replicates for each sample were used to determine the cell proliferation.

[6] = test system: cytopathogenic bovine orphan virus (ECBO) strain LCR-4; experiment: Time of addition assay (post-adsorption), CPE/MTT in A549 cells; format: cell-based, cytopathogenic bovine orphan virus (BEV-1)
in vitro = conditions: human
Protocol: The cytotoxic effect of compounds on A549 cells was determined by the MTT method, as previously described [36]. The MTT assay is the enzyme-based method, which use the 3-(4,5-dimethylthiazol-2-yl)-2,5-diphenyltetrazolium bromide as a reductive coloring agent. Briefly, subconfluent monolayers of A549 cells (2 × 10^4 cell/well in Dulbecco’s Minimal Essential Medium (DMEM) supplemented with 5% fetal bovine serum (FBS), antibiotics (100 U/mL penicillin and 100 μg/mL streptomycin), and 2 mM L-glutamine (all from Sigma Aldrich, St. Louis, MO, USA) were incubated in 96-multi-well plates in the presence of dilutions of the compounds ranging from 100 μg/mL to 0.5 μg/mL, in triplicate for 48 h at 37 °C in a humidified atmosphere with 5% CO2. After 48 h, 20 μL of MTT solution (Promega, Madison, WI, USA) was added to each well, and the microplates were kept at 37 °C/5% CO2 for 3 h. Then, the solubilization/stop solution containing SDS-HCl (100 μL/well) was added, and the absorbance values of the wells were measured at 570 nm using a 96-well plate reader (Multiskan RC spectrophotometer, Thermo Labsystems, Waltham, MA, USA). Cell viability (%) was calculated for each concentration as Abs treated/Abs control × 100, where Abs treated and Abs control are the absorbance readings for the wells with and without the tested compounds, respectively. The 50% cytotoxic concentration (CC50) was defined as the concentration that reduced cell viability by 50% with respect to controls without drugs. The CC50 value was calculated from the corresponding dose–response curves.

N.N.[Cl][Pt][Cl] [Cisplatin, reference compound]
IC50 [1]: 24.9 ± 1.1 µM
IC50 [2]: 5.5 ± 1 µM
IC50 [3]: 16.8 ± 1.7 µM
IC50 [4]: 12.3 ± 2.1 µM
IC50 (SNB-19 (glioblastoma)): 2.3 ± 0.05 µM

C=C(C)C1CC[C@]2(COC(=O)c3cn(Cc4ccccc4)nn3)CC[C@]3(C)C(CCC4[C@@]5(C)CC[C@H](O)C(C)(C)C5CC[C@]43C)C12 (stereo partly shown) [Compound 5a, 28-O-(1-Benzyl-1H-1,2,3-triazol-4-yl)carbonylbetulin]
inhibition at 25 µg/mL [5]: 40%
IC50 ([1]; Homo sapiens): 10.5 ± 0.09 µM
IC50 ([2]; Homo sapiens, MCF7): 58.8 ± 1.5 µM
melting point: 169 to 171 °C
IC50 ([3]; Homo sapiens): 78.5 ± 8.3 µM
IC50 ± SD [4]: Neg
IC50 (SNB-19 (glioblastoma); Homo sapiens): 96.2 ± 1.2 µM

C=C(C)C1CC[C@]2(COC(=O)c3cn(Cc4ccc(F)cc4)nn3)CC[C@]3(C)C(CCC4[C@@]5(C)CC[C@H](O)C(C)(C)C5CC[C@]43C)C12 (stereo partly shown) [Compound 5b, 28-O-[1-(4-Fluorobenzyl)-1H-1,2,3-triazol-4-yl]carbonylbetulin]
inhibition at 10 µg/mL [5]: 40%
IC50 ([1]; Homo sapiens): 8.5 ± 0.02 µM
IC50 ± SD [2]: Neg
melting point: 144 to 147 °C
IC50 ([3]; Homo sapiens): 129 ± 7.7 µM
IC50 ± SD [4]: Neg
IC50 (SNB-19 (glioblastoma); Homo sapiens): 66.1 ± 0.7 µM

C=C(C)C1CC[C@]2(COC(=O)c3cn(Cc4ccc(C#N)cc4)nn3)CC[C@]3(C)C(CCC4[C@@]5(C)CC[C@H](O)C(C)(C)C5CC[C@]43C)C12 (stereo partly shown) [Compound 5c, 28-O-[1-(4-Cyanobenzyl)-1H-1,2,3-triazol-4-yl]carbonylbetulin]
IC50 ([1]; Homo sapiens): 1.4 ± 0.01 µM
IC50 ± SD [2]: Neg
melting point: 225 to 228 °C
IC50 ([3]; Homo sapiens): 9.7 ± 0.1 µM
IC50 ± SD [4]: Neg
IC50 (SNB-19 (glioblastoma); Homo sapiens): 0.7 ± 0.08 µM

C=C(C)C1CC[C@]2(COC(=O)c3cn(CSc4ccccc4)nn3)CC[C@]3(C)C(CCC4[C@@]5(C)CC[C@H](O)C(C)(C)C5CC[C@]43C)C12 (stereo partly shown) [Compound 5d, 28-O-(1-Phenylthiomethyl-1H-1,2,3-triazol-4-yl)carbonylbetulin]
inhibition at 10 µg/mL [5]: 40%
IC50 ([1]; Homo sapiens): 52.5 ± 1.4 µM
IC50 ± SD [2]: Neg
melting point: 143 to 146 °C
IC50 ([3]; Homo sapiens): 100 ± 5.5 µM
IC50 ± SD [4]: Neg
IC50 (SNB-19 (glioblastoma); Homo sapiens): 13 ± 0.09 µM

C=C(C)C1CC[C@]2(COC(=O)c3cn(CC(=O)OCC)nn3)CC[C@]3(C)C(CCC4[C@@]5(C)CC[C@H](O)C(C)(C)C5CC[C@]43C)C12 (stereo partly shown) [Compound 5g, 28-O-(1-Ethylacetyl-1H-1,2,3-triazol-4-yl)carbonylbetulin]
IC50 ([1]; Homo sapiens): 135 ± 2.6 µM
IC50 ± SD [2]: Neg
melting point: 176 to 181 °C
IC50 ([3]; Homo sapiens): 11.4 ± 0.2 µM
IC50 ± SD [4]: Neg
IC50 (SNB-19 (glioblastoma); Homo sapiens): 92.3 ± 0.9 µM

C=C(C)C1CC[C@]2(COC(=O)c3cn(CCCO)nn3)CC[C@]3(C)C(CCC4[C@@]5(C)CC[C@H](O)C(C)(C)C5CC[C@]43C)C12 (stereo partly shown) [Compound 5h, 28-O-[1-(3-Hydroxypropyl)-1H-1,2,3-triazol-4-yl]carbonylbetulin]
EC50 ([6]; A549): 0.5 µg/mL (≈ 0.839 µM)
SI ([6]; selectivity index, ratio of CC50 to EC50, ECBO in A549 cells): 55.5
CC50 at 48 h (in vitro): 27.7 µg/mL (≈ 46.5 µM)
IC50 ([1]; Homo sapiens): 1.3 ± 0.05 µM
potency relative to cisplatin [1]: 19 fold
IC50 ([2]; Homo sapiens, MCF7): 15.5 ± 1.1 µM
IC50 ([3]; Homo sapiens): 6.2 ± 0.6 µM
IC50 ([4]; Homo sapiens): 80.3 ± 5.8 µM
IC50 (SNB-19 (glioblastoma); Homo sapiens): 9.9 ± 0.7 µM

C=C(C)C1CC[C@]2(COC(=O)c3cn(CCCN)nn3)CC[C@]3(C)C(CCC4[C@@]5(C)CC[C@H](O)C(C)(C)C5CC[C@]43C)C12 (stereo partly shown) [Compound 5i, 28-O-[1-(3-Aminopropyl)-1H-1,2,3-triazol-4-yl]carbonylbetulin]
IC50 ([1]; Homo sapiens): 3.63 ± 0.3 µM
IC50 ([2]; Homo sapiens, MCF7): 6.94 ± 0.8 µM
melting point: 156 to 160 °C
IC50 ([3]; Homo sapiens): 0.6 ± 0.13 µM
IC50 ([4]; Homo sapiens): 7.9 ± 0.9 µM
IC50 (SNB-19 (glioblastoma); Homo sapiens): 0.9 ± 0.03 µM

C=C(C)C1CC[C@]2(COC(=O)c3cn(C(C(=O)O)C(C)C)nn3)CC[C@]3(C)C(CCC4[C@@]5(C)CC[C@H](O)C(C)(C)C5CC[C@]43C)C12 (stereo partly shown) [Compound 5k]
IC50 ([1]; Homo sapiens): 7.2 ± 0.2 µM
IC50 ([2]; Homo sapiens, MCF7): 37.2 ± 0.7 µM
melting point: 293 to 297 °C
IC50 ([3]; Homo sapiens): 8.7 ± 0.5 µM
IC50 ([4]; Homo sapiens): 46.9 ± 2.5 µM
IC50 (SNB-19 (glioblastoma); Homo sapiens): 6.3 ± 0.9 µM

C=C(C)C1CC[C@]2(COC(=O)c3cn(Cc4ccccc4)nn3)CC[C@]3(C)C(CCC4[C@@]5(C)CC[C@H](OC(=O)c6cn(Cc7ccccc7)nn6)C(C)(C)C5CC[C@]43C)C12 (stereo partly shown) [Compound 6a, 3,28-O,O’-Di[(1-benzyl-1H-1,2,3-triazol-4-yl)carbonyl]betulin]
IC50 ± SD [1]: Neg
IC50 ± SD [2]: Neg
melting point: 117 to 120 °C
IC50 ([3]; Homo sapiens): 80.7 ± 1.8 µM
IC50 ± SD [4]: Neg
IC50 (SNB-19 (glioblastoma); Homo sapiens): 24.4 ± 1.3 µM

C=C(C)C1CC[C@]2(COC(=O)c3cn(Cc4ccc(F)cc4)nn3)CC[C@]3(C)C(CCC4[C@@]5(C)CC[C@H](OC(=O)c6cn(Cc7ccc(F)cc7)nn6)C(C)(C)C5CC[C@]43C)C12 (stereo partly shown) [Compound 6b, 3,28-O,O’-Di[1-(4-fluorobenzyl-1H-1,2,3-triazol-4-yl)carbonyl]betulin]
IC50 ([1]; Homo sapiens): 0.05 ± 0.01 µM
potency relative to cisplatin [1]: 500 fold
IC50 ([2]; Homo sapiens, MCF7): 0.09 ± 0.01 µM
melting point: 155 to 158 °C
IC50 ± SD [3]: Neg
IC50 ± SD [4]: Neg
IC50 (SNB-19 (glioblastoma); Homo sapiens): 0.08 ± 0.01 µM

C=C(C)C1CC[C@]2(COC(=O)c3cn(Cc4ccc(C#N)cc4)nn3)CC[C@]3(C)C(CCC4[C@@]5(C)CC[C@H](OC(=O)c6cn(Cc7ccc(C#N)cc7)nn6)C(C)(C)C5CC[C@]43C)C12 (stereo partly shown) [Compound 6c, 3,28-O,O’-Di[1-(4-cyanobenzyl-1H-1,2,3-triazol-4-yl)carbonyl]betulin]
IC50 ([1]; Homo sapiens): 1.1 ± 0.01 µM
IC50 ([2]; Homo sapiens, MCF7): 60.7 ± 0.6 µM
IC50 ± SD [3]: Neg
IC50 ± SD [4]: Neg
IC50 (SNB-19 (glioblastoma); Homo sapiens): 0.06 ± 0.01 µM

C=C(C)C1CC[C@]2(COC(=O)c3cn(CSc4ccccc4)nn3)CC[C@]3(C)C(CCC4[C@@]5(C)CC[C@H](OC(=O)c6cn(CSc7ccccc7)nn6)C(C)(C)C5CC[C@]43C)C12 (stereo partly shown) [Compound 6d, 3,28-O,O’-Di[(1-phenylthiomethyl-1H-1,2,3-triazol-4-yl)carbonyl]betulin]
IC50 ([1]; Homo sapiens): 0.9 ± 0.05 µM
IC50 ([2]; Homo sapiens, MCF7): 0.9 ± 0.08 µM
melting point: 127 to 131 °C
IC50 ([3]; Homo sapiens): 103 ± 4.7 µM
IC50 ([4]; Homo sapiens): 100 ± 2.8 µM
IC50 (SNB-19 (glioblastoma); Homo sapiens): 0.5 ± 0.02 µM

C=C(C)C1CCC2(COC(=O)c3cn(C4CC(n5cc(C)c(=O)[nH]c5=O)OC4CO)nn3)CCC3(C)C(CCC4C5(C)CCC(OC(=O)c6cn(C7CC(n8cc(C)c(=O)[nH]c8=O)OC7CO)nn6)C(C)(C)C5CCC43C)C12 (stereo not shown) [Compound 6e, 3,28-O,O’-Di[1-(3′-deoxythymidine-5′-yl-1H-1,2,3-triazol-4-yl)carbonyl]betulin]
IC50 ± SD [1]: total decay of cytotoxic effect and Neg
IC50 ± SD [2]: total decay of cytotoxic effect and Neg
melting point: 224 to 227 °C
IC50 ± SD [3]: total decay of cytotoxic effect and Neg
IC50 ± SD [4]: total decay of cytotoxic effect and Neg
IC50 ± SD (SNB-19 (glioblastoma)): total decay of cytotoxic effect and Neg

C=C(C)C1CC[C@]2(COC(=O)c3cn(CC(=O)OCC)nn3)CC[C@]3(C)C(CCC4[C@@]5(C)CC[C@H](OC(=O)c6cn(CC(=O)OCC)nn6)C(C)(C)C5CC[C@]43C)C12 (stereo partly shown) [Compound 6g, 3,28-O,O’-Di-[(1-ethylacetyl-1H-1,2,3-triazol-4-yl)carbonyl]betulin]
IC50 ± SD [1]: Neg
IC50 ± SD [2]: Neg
IC50 ([3]; Homo sapiens): 97.6 ± 3.3 µM
IC50 ± SD [4]: Neg
IC50 ± SD (SNB-19 (glioblastoma)): Neg
